Test results published in patent US6936585B2, “Corticotropin releasing factor 2 receptor agonists” (priority 2002, dated 2005).
Ends that are not written are not given here. Peptide text beside a SMILES is read from it.

Legend:
CRF1R = molecular target: T1, CRF1R (Homo sapiens, UniProt P34998); test: CRF1R agonist activation (EC50 / Emax), called comparative CRF binding; assay type: cell-based; conditions: for Emax: read-out: CRF1R Emax
T1 sequence (P34998 24-415): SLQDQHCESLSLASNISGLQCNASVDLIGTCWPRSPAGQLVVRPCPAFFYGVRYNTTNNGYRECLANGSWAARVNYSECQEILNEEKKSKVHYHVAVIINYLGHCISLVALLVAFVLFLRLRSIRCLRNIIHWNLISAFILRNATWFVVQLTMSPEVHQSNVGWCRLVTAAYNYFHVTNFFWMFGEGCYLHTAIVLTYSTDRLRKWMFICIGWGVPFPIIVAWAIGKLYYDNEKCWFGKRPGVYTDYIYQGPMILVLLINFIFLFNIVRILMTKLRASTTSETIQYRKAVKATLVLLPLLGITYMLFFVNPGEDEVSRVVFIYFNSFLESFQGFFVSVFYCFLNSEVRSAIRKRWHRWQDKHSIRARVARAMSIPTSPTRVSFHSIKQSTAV
Outline: (§1)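 Cells expressing full-length human CRF1R or CRF2R were exposed to peptide or vehicle control, and receptor activation was gauged as cAMP induction. cAMP was measured in cell lysates or via a cAMP-responsive element driving a reporter gene such as luciferase, CAT, GFP or alkaline phosphatase.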

CRF2R = molecular target: T2, CRF2R (Homo sapiens, UniProt Q13324); test: CRF2R agonist activation (EC50 / Emax), called comparative CRF binding; assay type: cell-based; conditions: for Emax: read-out: CRF2R Emax
T2 sequence (Q13324 1-411): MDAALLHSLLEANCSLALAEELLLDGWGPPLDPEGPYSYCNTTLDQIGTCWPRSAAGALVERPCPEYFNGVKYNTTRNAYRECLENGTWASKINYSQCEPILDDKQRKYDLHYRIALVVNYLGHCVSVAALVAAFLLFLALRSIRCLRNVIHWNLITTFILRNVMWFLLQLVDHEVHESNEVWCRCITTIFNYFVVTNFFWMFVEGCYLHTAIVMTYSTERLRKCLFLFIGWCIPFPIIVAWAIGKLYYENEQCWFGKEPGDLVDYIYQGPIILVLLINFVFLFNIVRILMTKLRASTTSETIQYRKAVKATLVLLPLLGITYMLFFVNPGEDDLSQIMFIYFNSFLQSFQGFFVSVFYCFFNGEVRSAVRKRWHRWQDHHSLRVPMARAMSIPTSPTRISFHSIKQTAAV
Outline: as §1

Compound | EC50 (CRF1R; read-out: CRF1R EC50) | Emax (CRF1R) | EC50 (CRF2R; read-out: CRF2R EC50) | Emax (CRF2R)
CC[C@H](C)[C@H](N)C(=O)N[C@H](C(=O)N[C@@H](CC(C)C)C(=O)N[C@@H](CO)C(=O)N[C@@H](CC(C)C)C(=O)N[C@@H](CC(=O)O)C(=O)N[C@H](C(=O)N1CCC[C@H]1C(=O)N[C@H](C(=O)NCC(=O)N[C@@H](CC(C)C)C(=O)N[C@@H](CC(C)C)C(=O)N[C@@H](CCC(N)=O)C(=O)N[C@H](C(=O)N[C@@H](CC(C)C)C(=O)N[C@@H](CC(C)C)C(=O)N[C@@H](CCC(=O)O)C(=O)N[C@@H](CCC(N)=O)C(=O)N[C@@H](C)C(=O)N[C@@H](CCCCN)C(=O)N[C@@H](C)C(=O)N[C@@H](CCC(=O)O)C(=O)N[C@@H](C)C(=O)N[C@@H](C)C(=O)N[C@@H](CCCNC(=N)N)C(=O)N[C@@H](CCC(=O)O)C(=O)N[C@@H](CCC(N)=O)C(=O)N[C@@H](C)C(=O)N[C@H](C(=O)N[C@H](C(=O)N[C@@H](CC(N)=O)C(=O)N[C@@H](C)C(=O)N[C@@H](CCCNC(=N)N)C(=O)N[C@H](C(=O)N[C@@H](CC(C)C)C(=O)N[C@@H](C)C(=O)N[C@@H](CCCNC(=N)N)C(=O)N[C@H](C(N)=O)C(C)C)[C@@H](C)CC)[C@@H](C)O)[C@@H](C)O)[C@@H](C)CC)[C@@H](C)CC)C(C)C)C(C)C [compound 112] (H-IVLSLDVPIGLLQILLEQAKAEAAREQATTNARILARV-NH2; N-terminus assumed) | > 0.1 µM | 10% | 0.0123 µM | 100%
SQEPPISLDLPTELLREVLEMTKADQLAQQAHSNRKIIDIA-NH2 [compound 92] | – | 4.6% | – | 15.8%
SQEIVLSLDVPIGLLREVLEMTKADQLAQQAHSNRKLLDIA-NH2 [compound 152] | – | 4% | – | 19%
CC[C@H](C)[C@H](NC(=O)[C@H](C)NC(=O)[C@H](CC(N)=O)NC(=O)[C@H](CCC(N)=O)NC(=O)[C@H](CCC(=O)O)NC(=O)[C@H](C)NC(=O)[C@H](CCCNC(=N)N)NC(=O)[C@H](CCC(=O)O)NC(=O)[C@H](CCCNC(=N)N)NC(=O)[C@H](CCC(N)=O)NC(=O)[C@H](CO)NC(=O)[C@H](CCC(N)=O)NC(=O)[C@@H](NC(=O)[C@H](CCCNC(=N)N)NC(=O)[C@H](C)NC(=O)[C@H](CC(C)C)NC(=O)[C@H](CCC(=O)O)NC(=O)[C@H](CC(C)C)NC(=O)[C@H](CC(C)C)NC(=O)[C@@H](NC(=O)[C@H](CCCNC(=N)N)NC(=O)[C@H](CC(C)C)NC(=O)[C@H](CC(C)C)NC(=O)[C@H](Cc1ccccc1)NC(=O)[C@H](Cc1ccccc1)NC(=O)[C@@H]1CCCN1C(=O)[C@H](CC(C)C)NC(=O)[C@H](CC(=O)O)NC(=O)[C@@H](NC(=O)[C@H](CO)NC(=O)[C@H](CC(C)C)NC(=O)[C@H](CO)NC(=O)[C@@H]1CCCN1C(=O)[C@H](CC(N)=O)NC(=O)[C@@H](N)CC(=O)O)[C@@H](C)CC)[C@@H](C)O)[C@@H](C)O)C(=O)N[C@H](C(=O)N[C@@H](Cc1ccccc1)C(=O)N[C@@H](C)C(=O)N[C@@H](CO)C(=O)N[C@H](C(N)=O)C(C)C)[C@@H](C)CC [compound 184] (H-DNPSLSIDLPFFLLRTLLELARTQSQRERAEQNAIIFASV-NH2; N-terminus assumed) | – | 77.3% | – | 96.5%
CC[C@H](C)[C@H](N)C(=O)N[C@H](C(=O)N[C@@H](CC(C)C)C(=O)N[C@@H](CO)C(=O)N[C@@H](CC(C)C)C(=O)N[C@@H](CC(=O)O)C(=O)N[C@H](C(=O)N1CCC[C@H]1C(=O)N[C@H](C(=O)NCC(=O)N[C@@H](CC(C)C)C(=O)N[C@@H](CC(C)C)C(=O)N[C@@H](CCC(N)=O)C(=O)N[C@H](C(=O)N[C@@H](CC(C)C)C(=O)N[C@@H](CC(C)C)C(=O)N[C@@H](CCC(=O)O)C(=O)N[C@@H](CCC(N)=O)C(=O)N[C@@H](C)C(=O)N[C@@H](CCCNC(=N)N)C(=O)N[C@@H](Cc1c[nH]cn1)C(=O)N[C@@H](C)C(=O)N[C@@H](Cc1c[nH]cn1)C(=O)N[C@@H](C)C(=O)N[C@@H](Cc1c[nH]cn1)C(=O)N[C@@H](C)C(=O)N[C@@H](Cc1c[nH]cn1)C(=O)N[C@@H](C)C(=O)N[C@@H](Cc1c[nH]cn1)C(=O)N[C@@H](C)C(=O)N[C@@H](CCC(N)=O)C(=O)N[C@@H](C)C(=O)N[C@@H](Cc1c[nH]cn1)C(=O)N[C@H](C(=O)N[C@@H](CC(C)C)C(=O)N[C@@H](C)C(=O)N[C@@H](Cc1c[nH]cn1)C(=O)N[C@H](C(N)=O)C(C)C)[C@@H](C)CC)[C@@H](C)CC)[C@@H](C)CC)C(C)C)C(C)C [compound 369] (H-IVLSLDVPIGLLQILLEQARHAHAHAHAHAQAHILAHV-NH2) | – | 4% | – | 18%
CC[C@H](C)[C@H](N)C(=O)N[C@H](C(=O)N[C@@H](CC(C)C)C(=O)N[C@@H](CO)C(=O)N[C@@H](CC(C)C)C(=O)N[C@@H](CC(=O)O)C(=O)N[C@H](C(=O)N1CCC[C@H]1C(=O)N[C@H](C(=O)NCC(=O)N[C@@H](CC(C)C)C(=O)N[C@@H](CC(C)C)C(=O)N[C@@H](CCC(N)=O)C(=O)N[C@H](C(=O)N[C@@H](CC(C)C)C(=O)N[C@@H](CC(C)C)C(=O)N[C@@H](CCC(=O)O)C(=O)N[C@@H](CCC(N)=O)C(=O)N[C@@H](C)C(=O)N[C@@H](CCCNC(=N)N)C(=O)N[C@@H](C)C(=O)N[C@@H](CCCNC(=N)N)C(=O)N[C@@H](C)C(=O)N[C@@H](C)C(=O)N[C@@H](CCCNC(=N)N)C(=O)N[C@@H](CCC(=O)O)C(=O)N[C@@H](CCC(N)=O)C(=O)N[C@@H](C)C(=O)N[C@H](C(=O)N[C@H](C(=O)N[C@@H](CCC(N)=O)C(=O)N[C@@H](C)C(=O)N[C@@H](CCCNC(=N)N)C(=O)N[C@H](C(=O)N[C@@H](CC(C)C)C(=O)N[C@@H](C)C(=O)N[C@@H](CCCNC(=N)N)C(=O)N[C@H](C(N)=O)C(C)C)[C@@H](C)CC)[C@@H](C)O)[C@@H](C)O)[C@@H](C)CC)[C@@H](C)CC)C(C)C)C(C)C [compound 9] (H-IVLSLDVPIGLLQILLEQARARAAREQATTQARILARV-NH2) | – | 10% | – | 34%
CC[C@H](C)[C@H](N)C(=O)N[C@H](C(=O)N[C@@H](CC(C)C)C(=O)N[C@@H](CO)C(=O)N[C@@H](CC(C)C)C(=O)N[C@@H](CC(=O)O)C(=O)N[C@H](C(=O)N1CCC[C@H]1C(=O)N[C@H](C(=O)NCC(=O)N[C@@H](CC(C)C)C(=O)N[C@@H](CC(C)C)C(=O)N[C@@H](CCC(N)=O)C(=O)N[C@H](C(=O)N[C@@H](CC(C)C)C(=O)N[C@@H](CC(C)C)C(=O)N[C@@H](CCC(=O)O)C(=O)N[C@@H](CCC(N)=O)C(=O)N[C@@H](C)C(=O)N[C@@H](CCCNC(=N)N)C(=O)N[C@@H](C)C(=O)N[C@@H](CCC(=O)O)C(=O)N[C@@H](C)C(=O)N[C@@H](C)C(=O)N[C@@H](CCCNC(=N)N)C(=O)N[C@@H](CCC(=O)O)C(=O)N[C@@H](CCC(N)=O)C(=O)N[C@@H](C)C(=O)N[C@H](C(=O)N[C@H](C(=O)N[C@@H](CC(N)=O)C(=O)N[C@@H](C)C(=O)N[C@@H](CCCNC(=N)N)C(=O)N[C@H](C(=O)N[C@@H](CC(C)C)C(=O)N[C@@H](C)C(=O)N[C@@H](CCCNC(=N)N)C(=O)N[C@H](C(N)=O)C(C)C)[C@@H](C)CC)[C@@H](C)O)[C@@H](C)O)[C@@H](C)CC)[C@@H](C)CC)C(C)C)C(C)C [compound 122] (H-IVLSLDVPIGLLQILLEQARAEAAREQATTNARILARV-NH2; N-terminus assumed) | – | 10.7% | – | 97%
